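Growth conditions: 96-well plates. Treatment: test compound, 48 hours, 5 concentrations. Analysis: linear interpolation between bracketing concentrations; unreached endpoints set to highest concentration. GI50 marks 50% less growth. TGI is the concentration that stops growth completely.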
Columns and labels:
Test in all cases: inhibition of tumour cell growth, NCI panel, 48 h
[1] = system: SW-620 colon
[2] = system: SN12C renal
[3] = system: U251 CNS
[4] = system: PC-3 prostate
[5] = system: HS 578T breast
[6] = system: NCI-H522 lung
[7] = system: HCT-116 colon
[8] = system: COLO 205 colon
[9] = system: IGROV1 ovarian
[10] = system: UO-31 renal
[11] = system: HT29 colon
[12] = system: NCI-H460 lung
[13] = system: OVCAR-3 ovarian
[14] = system: SNB-19 CNS
[15] = system: HCT-15 colon
[16] = system: NCI-H23 lung
[17] = system: MALME-3M melanoma
[18] = system: K-562 leukemia
[19] = system: OVCAR-8 ovarian
[20] = system: NCI/ADR-RES ovarian
[21] = system: SNB-75 CNS
[22] = system: CAKI-1 renal
[23] = system: CCRF-CEM leukemia
[24] = system: UACC-257 melanoma
[25] = system: SK-MEL-28 melanoma
[26] = system: OVCAR-5 ovarian
[27] = system: BT-549 breast
[28] = system: EKVX NSCLC
[29] = system: SR leukemia
[30] = system: UACC-62 melanoma
[31] = system: 786-0 renal
[32] = system: MCF7 breast
[33] = system: HOP-62 NSCLC
[34] = system: HOP-92 NSCLC
[35] = system: ACHN renal
[36] = system: SF-268 CNS
[37] = system: A498 renal
[38] = system: SF-539 CNS
[39] = system: KM12 colon
[40] = system: MOLT-4 leukemia
[41] = system: T-47D breast
[42] = system: SK-MEL-5 melanoma
[43] = system: DU-145 prostate
[44] = system: SF-295 CNS
[45] = system: SK-MEL-2 melanoma
[46] = system: M14 melanoma
[47] = system: HCC-2998 colon
[48] = system: NCI-H226 lung
[49] = system: TK-10 renal
[50] = system: MDA-MB-231 breast
[51] = system: MDA-MB-435
[52] = system: SK-OV-3 ovarian
[53] = system: LOX IMVI melanoma
[54] = system: A549 NSCLC
[55] = system: RXF 393 renal
[56] = system: HL-60(TB) leukemia
[57] = system: RPMI-8226 leukemia
[58] = system: OVCAR-4 ovarian

How did the GI50 [1] turn out when Cc1cc(O)c(C2=NN(c3ccc(S(N)(=O)=O)cc3)C(c3ccccc3O)C2)cc1Cl (stereo unspecified) was run?
The GI50 was 1.7 µM.

And the TGI [1]?
The TGI was 3.39 µM.

What about the GI50 [2] of the same compound?
The GI50 was 2.8 µM.

And the TGI [2]?
Its TGI is 8.65 µM.

And the GI50 [3]?
The GI50 was 2.14 µM.

What about the TGI [3] of the same compound?
The TGI was 5.16 µM.

What about the GI50 [4] of the same compound?
Its GI50 is 1.33 µM.

What about the TGI [4] of the same compound?
The TGI was 3.26 µM.

What about the GI50 [5] of the same compound?
The GI50 was 2.95 µM.

And the TGI [5]?
The TGI was 10.5 µM.

And the GI50 [6]?
Its GI50 is 1.91 µM.

What about the TGI [6] of the same compound?
The TGI was 4.72 µM.

What about the GI50 [7] of the same compound?
Its GI50 is 1.57 µM.

And the TGI [7]?
The TGI was 2.91 µM.

What about the GI50 [8] of the same compound?
Its GI50 is 1.86 µM.

What about the TGI [8] of the same compound?
The TGI was 3.41 µM.

And the GI50 [9]?
Its GI50 is 1.07 µM.

And the TGI [9]?
Its TGI is 5.66 µM.

And the GI50 [10]?
Its GI50 is 0.181 µM.

And the TGI [10]?
Its TGI is 5.65 µM.

What about the GI50 [11] of the same compound?
The GI50 was 2.07 µM.

And the TGI [11]?
Its TGI is 4.07 µM.

What about the GI50 [12] of the same compound?
The GI50 was 2.07 µM.

What about the TGI [12] of the same compound?
Its TGI is 4.38 µM.

What about the GI50 [13] of the same compound?
The GI50 was 2.61 µM.

What about the TGI [13] of the same compound?
Its TGI is 7.62 µM.

And the GI50 [14]?
Its GI50 is 3.5 µM.

What about the TGI [14] of the same compound?
The TGI was 11.4 µM.

And the GI50 [15]?
Its GI50 is 2.39 µM.

What about the TGI [15] of the same compound?
The TGI was 6.25 µM.

What about the GI50 [16] of the same compound?
The GI50 was 2 µM.

And the TGI [16]?
Its TGI is 4.38 µM.

And the GI50 [17]?
Its GI50 is 2.2 µM.

And the TGI [17]?
The TGI was 6.7 µM.

And the GI50 [18]?
The GI50 was 2.17 µM.

And the TGI [18]?
Its TGI is 7.93 µM.

What about the GI50 [19] of the same compound?
Its GI50 is 2.8 µM.

What about the TGI [19] of the same compound?
The TGI was 8.54 µM.

And the GI50 [20]?
The GI50 was 2.82 µM.

What about the TGI [20] of the same compound?
Its TGI is 8.84 µM.

What about the GI50 [21] of the same compound?
Its GI50 is 1.54 µM.

What about the TGI [21] of the same compound?
The TGI was 8.64 µM.

And the GI50 [22]?
Its GI50 is 1.67 µM.

What about the TGI [22] of the same compound?
The TGI was 4.12 µM.

What about the GI50 [23] of the same compound?
The GI50 was 3.12 µM.

And the TGI [23]?
The TGI was over 24.7 µM.

What about the GI50 [24] of the same compound?
The GI50 was 3.45 µM.

What about the TGI [24] of the same compound?
The TGI was 8.74 µM.

What about the GI50 [25] of the same compound?
The GI50 was 2.74 µM.

And the TGI [25]?
Its TGI is 6.8 µM.

And the GI50 [26]?
Its GI50 is 1.7 µM.

What about the TGI [26] of the same compound?
Its TGI is 3.61 µM.

What about the GI50 [27] of the same compound?
The GI50 was 2.08 µM.

And the TGI [27]?
The TGI was 6.11 µM.

What about the GI50 [28] of the same compound?
The GI50 was 1.96 µM.

And the TGI [28]?
Its TGI is 6.52 µM.

What about the GI50 [29] of the same compound?
Its GI50 is 2.22 µM.

What about the TGI [29] of the same compound?
Its TGI is 26.7 µM.

What about the GI50 [30] of the same compound?
Its GI50 is 2.18 µM.

And the TGI [30]?
The TGI was 6.59 µM.

And the GI50 [31]?
The GI50 was 2.04 µM.

And the TGI [31]?
Its TGI is 3.88 µM.

What about the GI50 [32] of the same compound?
The GI50 was 2.25 µM.

What about the TGI [32] of the same compound?
Its TGI is 6.12 µM.

What about the GI50 [33] of the same compound?
Its GI50 is 1.75 µM.

What about the TGI [33] of the same compound?
The TGI was 3.68 µM.

What about the GI50 [34] of the same compound?
Its GI50 is 1.46 µM.

What about the TGI [34] of the same compound?
The TGI was 6.51 µM.

And the GI50 [35]?
Its GI50 is 2.58 µM.

What about the TGI [35] of the same compound?
The TGI was 8.55 µM.

What about the GI50 [36] of the same compound?
The GI50 was 2.64 µM.

What about the TGI [36] of the same compound?
The TGI was 8.06 µM.

And the GI50 [37]?
The GI50 was 1.69 µM.

What about the TGI [37] of the same compound?
The TGI was 7.29 µM.

And the GI50 [38]?
Its GI50 is 1.61 µM.

What about the TGI [38] of the same compound?
Its TGI is 3.04 µM.

What about the GI50 [39] of the same compound?
The GI50 was 1.74 µM.

And the TGI [39]?
Its TGI is 3.4 µM.

What about the GI50 [40] of the same compound?
Its GI50 is 3.11 µM.

What about the TGI [40] of the same compound?
Its TGI is 12.2 µM.

And the GI50 [41]?
Its GI50 is 2.61 µM.

What about the TGI [41] of the same compound?
The TGI was 11.3 µM.

And the GI50 [42]?
The GI50 was 5.6 µM.

What about the TGI [42] of the same compound?
Its TGI is 18.2 µM.

And the GI50 [43]?
The GI50 was 2.41 µM.

And the TGI [43]?
Its TGI is 4.95 µM.

What about the GI50 [44] of the same compound?
Its GI50 is 1.68 µM.

And the TGI [44]?
The TGI was 3.5 µM.

And the GI50 [45]?
Its GI50 is 4.85 µM.

And the TGI [45]?
Its TGI is 11.6 µM.

And the GI50 [46]?
Its GI50 is 1.75 µM.

And the TGI [46]?
Its TGI is 3.39 µM.

What about the GI50 [47] of the same compound?
Its GI50 is 2 µM.

What about the TGI [47] of the same compound?
Its TGI is 3.81 µM.

And the GI50 [48]?
The GI50 was 1.83 µM.

And the TGI [48]?
Its TGI is 6.05 µM.

And the GI50 [49]?
Its GI50 is 3.03 µM.

What about the TGI [49] of the same compound?
Its TGI is 7.32 µM.

What about the GI50 [50] of the same compound?
Its GI50 is 1.91 µM.

And the TGI [50]?
The TGI was 5.11 µM.

And the GI50 [51]?
Its GI50 is 2.01 µM.

And the TGI [51]?
The TGI was 4.32 µM.

What about the GI50 [52] of the same compound?
The GI50 was 3.86 µM.

What about the TGI [52] of the same compound?
Its TGI is 13.2 µM.

And the GI50 [53]?
Its GI50 is 1.63 µM.

And the TGI [53]?
Its TGI is 3.03 µM.

What about the GI50 [54] of the same compound?
Its GI50 is 2.67 µM.

What about the TGI [54] of the same compound?
The TGI was 7.85 µM.

What about the GI50 [55] of the same compound?
The GI50 was 2.05 µM.

And the TGI [55]?
The TGI was 5.78 µM.

And the GI50 [56]?
Its GI50 is 2.49 µM.

What about the TGI [56] of the same compound?
The TGI was 6.14 µM.

What about the GI50 [57] of the same compound?
The GI50 was 2.24 µM.

And the TGI [57]?
Its TGI is 10.1 µM.

What about the GI50 [58] of the same compound?
The GI50 was 2.89 µM.

What about the TGI [58] of the same compound?
The TGI was 9.58 µM.
